In ChEMBL document CHEMBL3784966, “Approaching the active conformation of 1,3-diaminopyrimidine based covalent inhibitors of Bruton's tyrosine kinase for treatment of Rheumatoid arthritis” (Bioorg Med Chem Lett, 2016):

Experiments:
[1] = target: Tyrosine-protein kinase BTK (Homo sapiens, UniProt Q06187); test: Inhibition of BTK (unknown origin)
[2] = Antiproliferative activity against B cells (unknown origin); assay type: functional, cell-based; details: B-cell
[3] = Metabolic stability in human plasma assessed as remaining compound at 1 uM after 4 hrs by LC-MS/MS analysis; assay type: ADME, cell-free; details: read-out: Stability
[4] = Metabolic stability in Beagle dog plasma assessed as remaining compound at 1 uM after 4 hrs by LC-MS/MS analysis; assay type: ADME, cell-free, Canis lupus familiaris; details: read-out: Stability
[5] = Metabolic stability in Sprague-Dawley rat plasma assessed as remaining compound at 1 uM after 4 hrs by LC-MS/MS analysis; assay type: ADME, cell-free; details: read-out: Stability
[6] = Plasma clearance in Sprague-Dawley rat at 2 mg/kg, iv; assay type: ADME, organism-based
[7] = Half life in Sprague-Dawley rat at 2 mg/kg, po; assay type: ADME, organism-based; details: in vivo
[8] = Oral bioavailability in Sprague-Dawley rat at 2 mg/kg; assay type: ADME, organism-based; details: in vivo
[9] = Cmax in Sprague-Dawley rat at 2 mg/kg, po; assay type: ADME, organism-based; set-up: dose 2 mg/kg, route oral; details: in vivo
[10] = AUC(0 to t) in Sprague-Dawley rat at 2 mg/kg, po; assay type: ADME, organism-based; details: in vivo

Chain of Tyrosine-protein kinase BTK (Q06187 whole entry): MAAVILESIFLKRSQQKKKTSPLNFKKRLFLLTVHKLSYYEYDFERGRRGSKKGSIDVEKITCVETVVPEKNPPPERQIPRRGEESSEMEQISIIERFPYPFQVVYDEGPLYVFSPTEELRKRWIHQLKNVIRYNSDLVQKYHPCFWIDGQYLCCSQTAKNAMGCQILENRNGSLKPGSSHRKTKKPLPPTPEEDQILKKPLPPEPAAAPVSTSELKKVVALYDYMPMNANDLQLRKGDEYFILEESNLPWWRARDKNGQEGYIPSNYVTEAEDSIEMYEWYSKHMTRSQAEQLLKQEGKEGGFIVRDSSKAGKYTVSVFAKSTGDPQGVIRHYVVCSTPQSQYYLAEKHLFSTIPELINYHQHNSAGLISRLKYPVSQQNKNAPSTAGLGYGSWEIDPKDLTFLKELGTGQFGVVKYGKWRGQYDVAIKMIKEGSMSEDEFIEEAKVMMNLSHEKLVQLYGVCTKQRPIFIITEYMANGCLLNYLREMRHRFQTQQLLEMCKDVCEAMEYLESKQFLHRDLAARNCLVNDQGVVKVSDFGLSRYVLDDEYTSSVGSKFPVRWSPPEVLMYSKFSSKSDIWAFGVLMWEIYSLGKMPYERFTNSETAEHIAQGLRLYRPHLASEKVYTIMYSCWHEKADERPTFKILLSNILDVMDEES

IC50 [1] [nM] | SMILES | IC50 [2] [nM] | also measured
318 | C=CC(=O)Nc1cccc(-n2c(=O)n(C3CCOCC3)c3cnc(Nc4ccc(OC)nc4)nc32)c1 |  | 
30.6 | C=CC(=O)Nc1cccc(-n2c(=O)n(CC3CC3)c3cnc(Nc4ccc(N(C)C)nc4)nc32)c1 | 818 | 
5.65 | C=CC(=O)Nc1cccc(Nc2nc(Nc3ccc(Oc4ccnc(C(=O)NC)c4)cc3)ncc2[S+](C)[O-])c1 (racemic) | 19.4 | 
 | C=CC(=O)Nc1cccc(Nc2nc(Nc3ccc(OCCOC)cc3)ncc2F)c1 [SPEBRUTINIB] | 3.28 | 
3.76 | C=CC(=O)Nc1cccc(Nc2nc(Nc3ccc(OCCOC)cc3)ncc2[S+](C)[O-])c1 (racemic) | 5.85 | remaining at 4 h, 1 µM [3]: 86.7%; remaining at 4 h, 1 µM [4]: 94.3%; remaining at 4 h, 1 µM [5]: 90.7%; clearance [6]: 108 mL/min/kg; half-life [7]: 1.3 h; bioavailability [8]: 23%; Cmax [9]: 55 ng/mL; AUC(0-t) [10]: 73 ng·h/mL
6.6 | C=CC(=O)Nc1cccc(Nc2nc(Nc3ccc(OCCOC)cc3)ncc2SC)c1 | 30.6 | 
1.08 | C=CC(=O)Nc1cccc(Nc2nc(Nc3ccc(N4CCOCC4)cc3)ncc2SC)c1 | 64 | 
13 | C=CC(=O)Nc1cccc(-n2c(=O)n(C)c3cnc(Nc4ccc(Oc5ccnc(C(=O)NC)c5)cc4)nc32)c1 | 13.7 | clearance [6]: 30 mL/min/kg; half-life [7]: 2.4 h; bioavailability [8]: 9%; Cmax [9]: 107 ng/mL; AUC(0-t) [10]: 100 ng·h/mL
222 | C=CC(=O)Nc1cccc(-n2c(=O)n(CC3CC3)c3cnc(Nc4ccc(OC)nc4)nc32)c1 |  | 
31 | C=CC(=O)Nc1cccc(-n2c(=O)n(CC3CC3)c3cnc(Nc4ccc(N5CCOCC5)cc4)nc32)c1 | 70.6 | remaining at 4 h, 1 µM [3]: 40.8%; remaining at 4 h, 1 µM [4]: 93.4%; remaining at 4 h, 1 µM [5]: 80.5%
4.11 | C=CC(=O)Nc1cccc(-n2c(=O)n(C)c3cnc(Nc4ccc(OCCOC)cc4)nc32)c1 | 6.84 | remaining at 4 h, 1 µM [3]: 42.2%; remaining at 4 h, 1 µM [4]: 16.2%; remaining at 4 h, 1 µM [5]: 27.5%; clearance [6]: 253 mL/min/kg; half-life [7]: 1.4 h; bioavailability [8]: 20%; Cmax [9]: 41 ng/mL; AUC(0-t) [10]: 27 ng·h/mL
265 | C=CC(=O)Nc1cccc(-n2c(=O)n(CCOC)c3cnc(Nc4ccc(OC)nc4)nc32)c1 |  | 
1.48 | C=CC(=O)Nc1cccc(Nc2nc(Nc3ccc(N(C)C)nc3)ncc2[S+](C)[O-])c1 (racemic) | 14.9 | 
31.2 | C=CC(=O)Nc1cccc(Nc2nc(Nc3ccc(OCCOC)cc3)ncc2S(C)(=O)=O)c1 |  | 
0.903 | C=CC(=O)Nc1cccc(Nc2nc(Nc3ccc(N4CCOCC4)cc3)ncc2[S+](C)[O-])c1 (racemic) | 3.55 | 
